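Step 1: Grow cells in 96-well plates. Step 2: Expose to compound for 48 hours at 5 concentrations. Step 3: Interpolate endpoints linearly; if unreached, use highest concentration. GI50 = concentration required for 50% inhibition of growth.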 Activity calls are given as the source filed them. Cut-off read from the data, not from the text of the source: active = GI50 up to about 1.1 µM and inactive = higher.
Experiments:
Assay in all cases: NCI anticancer screen, dose series, 48 h
[1] = tested on: ACHN
[2] = tested on: DU-145
[3] = tested on: EKVX
[4] = tested on: HCT-116
[5] = tested on: HL-60
[6] = tested on: HOP-62
[7] = tested on: HT-29
[8] = tested on: Hs-578T
[9] = tested on: MCF7
[10] = tested on: MOLT-4
[11] = tested on: NCI-H226
[12] = tested on: NCI-H460
[13] = tested on: OVCAR-8
[14] = tested on: PC-3
[15] = tested on: SF-295
[16] = tested on: SF-539
[17] = tested on: SK-MEL-2
[18] = tested on: SN12C
[19] = tested on: U-251

Row | SMILES | GI50 [1] | GI50 [2] | GI50 [3] | GI50 [4] | GI50 [5] | GI50 [6] | GI50 [7] | GI50 [8] | GI50 [9] | GI50 [10] | GI50 [11] | GI50 [12] | GI50 [13] | GI50 [14] | GI50 [15] | GI50 [16] | GI50 [17] | GI50 [18] | GI50 [19]
1 | COc1ccc(-c2cs/c(=N\c3ccccc3)n2CC(O)c2ccc([N+](=O)[O-])cc2)cc1 (stereo unspecified) | > 100 µM (inactive) | > 100 µM (inactive) | > 100 µM (inactive) | > 29.9 µM (inactive) | > 100 µM (inactive) | > 100 µM (inactive) | > 100 µM (inactive) | > 100 µM (inactive) | > 63.8 µM (inactive) | 4.06 µM (inactive) | > 100 µM (inactive) | > 100 µM (inactive) | > 100 µM (inactive) | > 100 µM (inactive) | > 100 µM (inactive) | > 100 µM (inactive) | > 100 µM (inactive) | > 100 µM (inactive) | > 100 µM (inactive)
2 | CCCCCCCCCCCCCC[S+](C)C | 3.32 µM (inactive) | 3.8 µM (inactive) | 3.01 µM (inactive) | 2.51 µM (inactive) | 1.03 µM (active) | 1.67 µM (inactive) | 1.56 µM (inactive) | 1.65 µM (inactive) | 1.67 µM (inactive) | 1.23 µM (inactive) | 1.99 µM (inactive) | 2.11 µM (inactive) | 1.77 µM (inactive) | 1.24 µM (inactive) | 3.33 µM (inactive) | 1.27 µM (inactive) | 2.02 µM (inactive) | 1.59 µM (inactive) | 1.09 µM (active)
3 | CCN(CC)C1=Nc2ccccc2-n2ccnc2C1 | > 100 µM (inactive) | > 100 µM (inactive) | > 100 µM (inactive) | > 100 µM (inactive) | 78.2 µM (inactive) | > 100 µM (inactive) | > 100 µM (inactive) | > 100 µM (inactive) | > 100 µM (inactive) | > 100 µM (inactive) | > 100 µM (inactive) | 95.1 µM (inactive) | > 100 µM (inactive) | > 100 µM (inactive) | > 100 µM (inactive) | > 100 µM (inactive) | > 100 µM (inactive) | > 100 µM (inactive) | > 100 µM (inactive)
4 | CCCCn1c(N)c(-c2nc3ccccc3o2)sc1=S | 10.3 µM (inactive) | 12.4 µM (inactive) | 21.8 µM (inactive) | 10.5 µM (inactive) | > 100 µM (inactive) | 21.5 µM (inactive) | 27.4 µM (inactive) | 26.9 µM (inactive) | 24.7 µM (inactive) | 43 µM (inactive) | 15.7 µM (inactive) | 15.8 µM (inactive) | 17.5 µM (inactive) | 23.4 µM (inactive) | 12.6 µM (inactive) | 10.1 µM (inactive) | 13.4 µM (inactive) | 22.1 µM (inactive) | 15.9 µM (inactive)
5 | C#CCn1c(=O)c(C)cn(/C(=C\C(=O)OCC)C(=O)OCC)c1=O | 1.69 µM (inactive) | 16.1 µM (inactive) | 6.43 µM (inactive) | 3.34 µM (inactive) | 1.35 µM (inactive) | 20.5 µM (inactive) | 1.72 µM (inactive) | 24.8 µM (inactive) | 2.72 µM (inactive) | 2.65 µM (inactive) | 17.1 µM (inactive) | 2.2 µM (inactive) | 3.05 µM (inactive) | 13.5 µM (inactive) | 19.5 µM (inactive) | 1.28 µM (inactive) | 16.2 µM (inactive) | 6.3 µM (inactive) | 8.11 µM (inactive)
6 | COC(=O)C1OC(O[C@H]2CC[C@]3(C)[C@H]4CC=C5[C@@H]6CC(C)(C)CC[C@]6(C(=O)OC6OCC(O)C(O)C6OC6OC(C)C(OC7OCC(O)C(O)C7O)C(OC7OCC(O)(CO)C7O)C6O)[C@H](O)C[C@@]5(C)[C@]4(C)CC[C@H]3C2(C)C)C(O)C(O)C1O (stereo partly specified) | 3.31 µM (inactive) | 8.53 µM (inactive) | 2.77 µM (inactive) | 3.61 µM (inactive) | 2.35 µM (inactive) | 3.13 µM (inactive) | 2.54 µM (inactive) | 11.9 µM (inactive) | 1.38 µM (inactive) | 5.13 µM (inactive) | 4.23 µM (inactive) | 16.3 µM (inactive) | 10.5 µM (inactive) | 3.85 µM (inactive) | 4.43 µM (inactive) | 31.6 µM (inactive) | 2.56 µM (inactive) | 1.85 µM (inactive) | 6.5 µM (inactive)
7 | COC1=CC(=O)c2c(c(-c3csc(C)n3)cn2C)C1=O | 25.8 µM (inactive) | 4.85 µM (inactive) | 20 µM (inactive) | 23.4 µM (inactive) | 2.13 µM (inactive) | 30 µM (inactive) | 23.1 µM (inactive) | 21.6 µM (inactive) | 21.7 µM (inactive) | 31.9 µM (inactive) | 33.6 µM (inactive) | 3.43 µM (inactive) | 22.6 µM (inactive) | 20.9 µM (inactive) | 6.75 µM (inactive) | 17.9 µM (inactive) | 17.1 µM (inactive) | 22.1 µM (inactive) | 69.7 µM (inactive)
8 | CCCCCN(CCCCC)CC(C)(C)C(O)c1ccc(OC)c2ccccc12 (stereo unspecified) | 11.7 µM (inactive) | 12.5 µM (inactive) | 12.1 µM (inactive) | 12.9 µM (inactive) | 3.77 µM (inactive) | 22.9 µM (inactive) | 2.01 µM (inactive) | 16.6 µM (inactive) | 5.13 µM (inactive) | 3.25 µM (inactive) | 16.9 µM (inactive) | 3.4 µM (inactive) | 10.5 µM (inactive) | 10.9 µM (inactive) | 9.77 µM (inactive) | 3.89 µM (inactive) | 18.2 µM (inactive) | 11.5 µM (inactive) | 9.46 µM (inactive)
9 | CCN1CCC(O)(/C=C/c2ccc(Cl)c(Cl)c2)C(C(=O)/C=C/c2ccc(Cl)c(Cl)c2)C1 (stereo unspecified) | 1.06 µM (active) | 1.13 µM (inactive) | 0.731 µM (active) | 0.514 µM (active) | 0.246 µM (active) | 0.951 µM (active) | 0.689 µM (active) | 0.271 µM (active) | 1.06 µM (active) | 0.243 µM (active) | 1.84 µM (inactive) | 0.76 µM (active) | 0.745 µM (active) | 0.329 µM (active) | 0.713 µM (active) | 1.95 µM (inactive) | 1.04 µM (active) | 0.873 µM (active) | 2.11 µM (inactive)
10 | Cc1cc(C)n(-c2nc(-n3nc(C)cc3C)nc(-n3nc(C)cc3C)n2)n1 | 38.6 µM (inactive) | > 100 µM (inactive) | 40.2 µM (inactive) | > 100 µM (inactive) | > 100 µM (inactive) | > 100 µM (inactive) | > 100 µM (inactive) | 50.5 µM (inactive) | > 100 µM (inactive) | > 100 µM (inactive) | 35.8 µM (inactive) | 33.2 µM (inactive) | 68.9 µM (inactive) | > 100 µM (inactive) | > 100 µM (inactive) | > 100 µM (inactive) | > 100 µM (inactive) | > 100 µM (inactive) | > 10 µM (inactive)
11 | C=CCNC(=O)N1CC(C)C(=O)Nc2ccccc21 (stereo unspecified) | > 100 µM (inactive) | > 100 µM (inactive) | > 100 µM (inactive) | > 100 µM (inactive) | > 100 µM (inactive) | > 100 µM (inactive) | > 100 µM (inactive) | > 100 µM (inactive) | > 100 µM (inactive) | > 100 µM (inactive) | > 100 µM (inactive) | > 100 µM (inactive) | > 100 µM (inactive) | > 100 µM (inactive) | > 100 µM (inactive) | > 100 µM (inactive) | > 100 µM (inactive) | > 100 µM (inactive) | > 100 µM (inactive)
12 | Cc1ccc(-c2cc(-c3ccc(Cl)cc3)nc(/N=C3\C(=O)N(CN4CCCCC4)c4ccc(Cl)cc43)n2)cc1 | 29.6 µM (inactive) | 37.5 µM (inactive) | 77.8 µM (inactive) | 23.1 µM (inactive) | 16 µM (inactive) | 26.3 µM (inactive) | 32.3 µM (inactive) | 18.9 µM (inactive) | 21.1 µM (inactive) | 11.7 µM (inactive) | 39.4 µM (inactive) | 22.5 µM (inactive) | 18.5 µM (inactive) | 34 µM (inactive) | 42.2 µM (inactive) | 24.5 µM (inactive) | 18.2 µM (inactive) | 25.9 µM (inactive) | 24 µM (inactive)
13 | NNC(=O)Nc1nc2ccc(NN)cc2[nH]1 | 29 µM (inactive) | 97.7 µM (inactive) | 65.5 µM (inactive) | 32.8 µM (inactive) | 12.5 µM (inactive) | 44.4 µM (inactive) | 34.5 µM (inactive) | 33.7 µM (inactive) | 26.1 µM (inactive) | 11.6 µM (inactive) | 20.2 µM (inactive) | 27.4 µM (inactive) | 54 µM (inactive) | 34.4 µM (inactive) | 47.2 µM (inactive) | 12.6 µM (inactive) | 44 µM (inactive) | 42.2 µM (inactive) | 37 µM (inactive)
14 | CCCCc1c(O)nc(Nc2nc3ccccc3[nH]2)[nH]c1=O | > 100 µM (inactive) | > 100 µM (inactive) | > 100 µM (inactive) | > 100 µM (inactive) | > 100 µM (inactive) | > 100 µM (inactive) | > 100 µM (inactive) | 23.3 µM (inactive) | > 100 µM (inactive) | > 100 µM (inactive) | 67 µM (inactive) | > 100 µM (inactive) | > 100 µM (inactive) | > 100 µM (inactive) | > 100 µM (inactive) | > 100 µM (inactive) | > 100 µM (inactive) | > 100 µM (inactive) | 69.7 µM (inactive)
